The values below come from patent publication EP1321467A2, “High affinity inhibitors for target validation and uses thereof” (Princeton University, priority 1999, dated 2000).

The test system of data set [1] is panel of wild-type protein kinases. The data set can be described thus: In vitro inhibition, panel of wild-type protein kinases. Format: biochemical.
The target of a further data set is T1, F89G CAMK IIα (Homo sapiens, UniProt Q9UQM7, F89G).
T1 construct: made in house
In words: In vitro inhibition of phosphorylation of an exogenous substrate, kinase panel. Format: biochemical.

In data set [2] the test system is wild-type Fus3 expressing cells. The data set can be described thus: Yeast mating assay for Fus3 function. Format: cell-based, Saccharomyces cerevisiae. The following applies: all concentrations up to 50 µM.
Data set [3] relates to S. cerevisiae expressing either wild-type Fus3, Fus3-asl, or no Fus3. The data set can be described thus: Non-selective cytotoxicity control, plating of mating cultures on YPD. The following applies: any of the three strains.
The next data set has as its target T2, F80G CDK2 (Homo sapiens, UniProt P24941, F80G).
T2 construct: made in house
The data set can be described thus: In vitro inhibition of phosphorylation of an exogenous substrate, kinase panel. Format: biochemical.

Data set [4] relates to wild-type cells. In words: Yeast growth. The data set is classed as cell-based, Saccharomyces cerevisiae.
Data set [5] has as its target T3, Cdc28·MBP-C1b2 (Saccharomyces cerevisiae, UniProt P00546).
T3 construct: His6 (C); made in house; host or cells: Sf9 insect cells, baculovirus, co-infected with Cak1-HA3 (Cdc28-His6); bacteria (MBP-Clb2)
In words: 1-NM-PP1 IC50, Histone H1 phosphorylation. The data set is classed as biochemical. As to the method:
(§1) Purification of Cdc28-His6, Cdc28-as1-His6, MBP-Clb2: Lysate was prepared from insect cells co-infected with baculoviruses encoding Cdc28-His6 or Cdc28-as1-His6 and Cak1-HA3 (151). Cdc28-His6 and Cdc28-as1-His6 were purified by metal affinity chromatography as described (152), followed by […]. MBP-Clb2 was purified from lysates of bacteria expressing MBP-Clb2 (a gift of R. Deshaies) on an amylose column (NEBL), followed by anion-exchange chromatography (Pharmacia Q Sepharose Fast Flow).
(§2) Phosphate incorporation was determined at each inhibitor concentration by scintillation counting.

The test system of another data set is cdc28-as1 strain. The data set can be described thus: Yeast growth. The data set is classed as cell-based, Saccharomyces cerevisiae.
The target in data set [6] is T4, Cdc28-as1·MBP-C1b2 (Saccharomyces cerevisiae, UniProt P00546, F88G). The data set can be described thus: 1-NM-PP1 IC50, Histone H1 phosphorylation. Details: His6 (C); made in house; host or cells: Sf9 insect cells, baculovirus, co-infected with Cak1-HA3 (Cdc28-as1-His6); bacteria (MBP-Clb2). Format: biochemical. As to the method: as §1, §2
In the next data set the test system is glycine mutants. In words: In vitro inhibition, all glycine mutant kinases of the panel. Format: biochemical. To be noted: read-out: IC 50's for all of the glycine mutants.
For the next data set, the system named is fus3-as1 strain. The data set can be described thus: Yeast mating assay for Fus3 function. The data set is classed as cell-based, Saccharomyces cerevisiae.
Another data set has as its target T5, WT v-Src (Rous sarcoma virus subgroup A, UniProt P00524, DEL77-225).
T5 construct: glutathione-S-transferase fusion proteins of wild type v-Src catalytic domain, I338G v-Src SH1, and WT Fyn into the pGEX-KT plasmid; GST (N); made in house; host or cells: E. coli DH5a, pGEX-KT
In words: biochemical. The data set is classed as biochemical.

Another data set deals with T6, WT Fyn (Homo sapiens, UniProt P06241).
T6 construct: GST (N); made in house; host or cells: E. coli DH5a, pGEX-KT
The data set can be described thus: In vitro kinase inhibition assay. The following applies: Table 3. The data set is classed as biochemical.

In data set [7] the test system is cdc28-as1 cells. In words: Genome-wide transcription, oligonucleotide microarray. Format: cell-based, Saccharomyces cerevisiae. To be noted: 500 nM, two hours, asynchronous cells.
A further data set addresses T7, I338G v-Src (Rous sarcoma virus subgroup A, UniProt P00524, DEL77-225/I338G).
T7 construct: catalytic domain of the target kinase, I338G v-Src, which was expressed in bacteria and purified as a glutathione-S-transferase (GST) fusion protein; made in house; host or cells: E. coli DH5a, pGEX-KT
The data set can be described thus: biochemical. The data set is classed as biochemical.

Data set [8] has as its system wild-type cells. The data set can be described thus: Genome-wide transcription, oligonucleotide microarray. Format: cell-based, Saccharomyces cerevisiae. To be noted: 500 nM, 30 minutes. As to the method:
Changes were deemed significant if they were greater than or equal to 2-fold or if the transcript changed present/absent status (as indicated by Affymetrix software) in the following comparisons: for non-specific drug effects: CDC28 + 1 -NM-PP1 vs CDC28: for cdc28-as1 effects: cdc28-as1 vs. CDC28.
Next, the effects of the inhibitor 1-NM-PP1 on cell growth and morphology were analyzed.

Data set [9] has as its system cdc28-as1 cells. In words: Cell cycle analysis, DNA content and morphology. Format: cell-based, Saccharomyces cerevisiae. The following applies: 500 nM, cells arrested in late mitosis with cdc15-2. As to the method: DNA flow cytometry: Approximately 1x10^7 cells for each sample were fixed in 70% ethanol, resuspended in 50 mM Tris-HCl pH 8.0, briefly sonicated, digested with 2mg/ml RNase for 2 hours at 37°C, and resuspended in 0.2 ml protease solution (5 mg/ml pepsin. 0.5% concentrated HC1) and digested for 45 minutes at 37°C. DNA was stained with 1µM Sytox Green (Molecular Probes) in 50 mM Tris-HCl pH 7.5 and 20,000 cells from each sample were scanned with a FACScan FACS machine (Becton-Dickinson).
Thus, it appears possible to titrate the level of Cdc28-as1 activity in vivo, allowing the identification of cell cycle events that are differentially sensitive to decreases in the catalytic activity of Cdc28.
[…], initiation of budding and DNA synthesis were delayed about 30 to 60 minutes, while accumulation of the mitotic cyclin C1b2 was delayed 60 to 90 minutes. Cells went on to arrest with moderate C1b2 levels, highly hyperpolarized buds, and a G2/M DNA content, much like the arrest observed in asynchronous cells. […] Thus, cells treated with low concentrations of the inhibitor are slightly delayed during progression through early stages of the cell cycle, but eventually arrest due to a failure to assemble a mitotic spindle and enter mitosis.

For data set [10], the system named is GST-XD4(V323A, I338A). Format: biochemical. As to the method:
(§3) Kinetic constants were determined by analysis of Lineweaver-Burk plots of the rate data (64). […]

Data set [11] concerns the target T8, GST-XD4(V323A, I338A) (Rous sarcoma virus subgroup A, UniProt P00524, DEL77-225/I338A/V323A).
T8 construct: double alanine mutant of the v-Src catalytic domain, (the XD4 fragment) were made as glutathione S-transferase (GST) fusion proteins (GST-XD4); made in house; host or cells: E. coli (DH5a), pGEX-KT
Format: biochemical. To be noted: RR-Src 1 mM, 37°C, pH 8.0. As to the method:
as §3

Data set [12] deals with GST-XD4. In words: Kinetics for phosphate donor substrates. Format: biochemical. To be noted: RR-Src 1 mM, 37°C, pH 8.0. As to the method: as §3
In data set [13] the target is T3, Cdc28·MBP-C1b2. In words: ATP kinetics, Histone H1 phosphorylation. Format: biochemical. The following applies: read-out: ATP Kinetics Km; Eadie-Hofstee.
Data set [14] has as its system GST-XD4. The following applies: read-out: KM for RR-Src; nucleotide saturated.
Data set [15] addresses T4, Cdc28-as1·MBP-C1b2. To be noted: Eadie-Hofstee.
The test system of another data set is wild type protein kinase. In words: In vitro kinase reactions with radiolabeled nucleotide in murine lymphocyte lysates. Format: biochemical. The following applies: 100 µM, 37°C, 10 min, autoradiogram. As to the method: For this it is preferably that no wild-type kinase, including ser/thr specific kinase (which carry out the bulk of cellular phosphorylation, as only 0.03% of all phosphoamino acids are tyrosine) (65), substantially accept the synthetic substrate. To establish that [γ-^32P]
These assays were performed in a manner similar to the procedure set forth in Example 2, with the exception of the use of radiolabeled [γ-^32P] […] Proteins were separate by 12.5% SDS-PAGE. The gel was soaked in 10% acetic acid, 10% isopropanol for 1 h. after which it was dried in a gel dryer and exposed to Biomax MS film (Kodak # 111-1681) for 1 h.
The results are shown in Figure 5(b), which is an autoradiogram showing the level of phosphorylation in hypotonically lysed murine lymphocytes with [γ-^32P] […] In principle, the ability to follow one protein kinase's activity in the presence of all other cellular kinase would allow for the identification of the direct kinase targets in a particular cell type by using membrane permeabilization (66) and a cell permeable form of A*TP to introduce [γ-^32P] A*TP into cells (67).

Data set [16] concerns the target T8, GST-XD4(V323A, I338A). Format: biochemical. To be noted: nucleotide saturated; read-out: KM for RR-Src.
Another data set deals with I338A v-Src (Rous sarcoma virus subgroup A, UniProt P00524, I338A). The data set can be described thus: biochemical.
Setting [17] is: 1-NM-PP1 IC50 @ 10 µM ATP, 10 µM ATP.
The mark [18] stands for this setting: 1-NM-PP1 IC50 @ 1 mM ATP, 1 mM ATP.

Read-outs that look alike come from different tables or passages of the source.

T4 sequence (P00546 whole entry F88G): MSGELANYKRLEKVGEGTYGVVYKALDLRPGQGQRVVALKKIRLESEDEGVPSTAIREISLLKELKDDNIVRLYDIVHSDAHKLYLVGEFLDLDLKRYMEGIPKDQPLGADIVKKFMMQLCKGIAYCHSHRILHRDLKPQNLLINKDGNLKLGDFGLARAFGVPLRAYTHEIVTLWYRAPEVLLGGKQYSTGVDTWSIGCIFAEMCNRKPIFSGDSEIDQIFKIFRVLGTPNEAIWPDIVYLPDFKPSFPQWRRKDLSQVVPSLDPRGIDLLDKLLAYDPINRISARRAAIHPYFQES
T4 sequence (P24869 whole entry, further chain): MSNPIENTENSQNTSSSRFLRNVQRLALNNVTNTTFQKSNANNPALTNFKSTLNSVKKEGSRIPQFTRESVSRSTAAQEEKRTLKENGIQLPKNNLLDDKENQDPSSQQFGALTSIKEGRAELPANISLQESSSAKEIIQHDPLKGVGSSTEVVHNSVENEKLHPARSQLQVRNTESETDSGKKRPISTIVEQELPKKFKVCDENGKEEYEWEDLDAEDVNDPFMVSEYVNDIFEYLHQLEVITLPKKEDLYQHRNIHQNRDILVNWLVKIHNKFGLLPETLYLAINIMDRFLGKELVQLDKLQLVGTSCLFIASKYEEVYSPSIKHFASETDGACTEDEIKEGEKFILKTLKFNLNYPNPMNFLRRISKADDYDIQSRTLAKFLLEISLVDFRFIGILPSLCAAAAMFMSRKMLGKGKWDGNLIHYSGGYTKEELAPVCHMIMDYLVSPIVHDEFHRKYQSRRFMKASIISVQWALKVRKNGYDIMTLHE
T3 sequence (P00546 whole entry): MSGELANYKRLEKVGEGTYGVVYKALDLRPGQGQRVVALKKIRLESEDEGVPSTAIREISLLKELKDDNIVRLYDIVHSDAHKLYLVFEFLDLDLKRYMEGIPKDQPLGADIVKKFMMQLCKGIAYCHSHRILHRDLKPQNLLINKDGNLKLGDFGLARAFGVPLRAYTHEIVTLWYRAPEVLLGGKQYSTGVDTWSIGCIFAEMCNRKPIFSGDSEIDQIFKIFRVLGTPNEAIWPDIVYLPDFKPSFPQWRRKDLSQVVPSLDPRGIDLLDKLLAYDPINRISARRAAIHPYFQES
T3 sequence (P24869 whole entry partner): as the sequence (P24869 whole entry, further chain) above
T1 sequence (Q9UQM7 whole entry F89G): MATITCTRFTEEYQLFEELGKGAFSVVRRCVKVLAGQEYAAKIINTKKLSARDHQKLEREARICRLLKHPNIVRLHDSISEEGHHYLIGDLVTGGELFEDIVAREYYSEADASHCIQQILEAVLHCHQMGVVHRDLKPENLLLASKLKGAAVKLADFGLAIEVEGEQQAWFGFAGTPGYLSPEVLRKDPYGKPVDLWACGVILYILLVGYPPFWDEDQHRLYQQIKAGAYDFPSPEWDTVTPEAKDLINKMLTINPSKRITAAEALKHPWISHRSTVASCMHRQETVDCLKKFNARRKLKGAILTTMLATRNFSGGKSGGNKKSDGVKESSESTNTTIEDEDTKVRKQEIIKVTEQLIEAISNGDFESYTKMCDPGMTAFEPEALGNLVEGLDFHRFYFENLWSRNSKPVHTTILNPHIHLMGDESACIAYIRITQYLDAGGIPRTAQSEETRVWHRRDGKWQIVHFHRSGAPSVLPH
T6 sequence (P06241 1-534 isoform P06241-2): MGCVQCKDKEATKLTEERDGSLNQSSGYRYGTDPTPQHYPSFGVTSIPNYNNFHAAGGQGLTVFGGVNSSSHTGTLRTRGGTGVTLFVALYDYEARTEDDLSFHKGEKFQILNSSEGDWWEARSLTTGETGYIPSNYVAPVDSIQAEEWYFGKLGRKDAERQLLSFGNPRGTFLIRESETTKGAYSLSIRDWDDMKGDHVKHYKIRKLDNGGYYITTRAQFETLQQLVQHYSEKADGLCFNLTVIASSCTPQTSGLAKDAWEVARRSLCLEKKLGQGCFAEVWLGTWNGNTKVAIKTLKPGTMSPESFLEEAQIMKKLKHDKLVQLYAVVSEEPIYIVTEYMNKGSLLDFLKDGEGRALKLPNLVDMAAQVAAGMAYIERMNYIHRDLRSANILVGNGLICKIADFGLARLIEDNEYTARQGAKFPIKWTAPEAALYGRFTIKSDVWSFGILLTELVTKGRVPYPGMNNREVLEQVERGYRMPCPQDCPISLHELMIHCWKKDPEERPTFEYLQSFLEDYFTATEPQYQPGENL

Consider `CC(C)(C)n1nc(Cc2cccc3ccccc23)c2c(N)ncnc21` [Compound 11], for which, in data set [1], the “concentration below which none of the wild-type kinases tested are inhibited” value is reported as not below 1 µM. The IC50 on F89G CAMK IIα is 8 nM; against F80G CDK2, 5 nM; at Cdc28·MBP-C1b2 [5] (text b289, read-out: IC50) it was more than 50000 nM; on Cdc28-as1·MBP-C1b2 [6] (IC50, text b289), 3.9 nM; with glycine mutants it was less than 10 nM. Also, the diploid colonies in data set [2] was 0.6-1.1 x 10^5 cfu/ml. The “cfu/mL on YPD plates” value in data set [3] is on record as “No significant decrease in cfu/mL on YPD plates”. Besides, in the data set on wild-type cells [4] (concentrations that ablate Cdc28-as1 growth), the “growth of wild-type strains” value is “no effect on the growth of wild-type strains”. Besides, the “growth of yeast which express Cdc28-as1” value in the data set with cdc28-as1 strain (concentrations without effect on wild-type strains) is reported as “completely ablated”. Also, the decrease in mating with fus3-as1 strain (50 µM) is reported as 85 fold.

As to `CC(C)(C)n1nc(Cc2cccc3ccccc23)c2c(N)ncnc21` [Compound 6h, 4-amino-1-(tert-butyl)-3-(1'-naphthylmethyl)pyrazolo[3,4-d]pyrimidine], the IC50 is 28000 nM against WT v-Src; 1100 nM against WT Fyn; 4.2 nM on I338G v-Src; 44000 nM on Cdc28·MBP-C1b2 [5] (1 mM ATP, text b306, read-out: IC50); 22000 nM on Cdc28·MBP-C1b2 [5] (setting [17]); 44000 nM on Cdc28·MBP-C1b2 [5] (setting [18]). The IC50 with cdc28-as1 strain (Saccharomyces cerevisiae, read-out: inhibitor concentration at which growth was inhibited 50%) is 50 to 100 nM; against Cdc28-as1·MBP-C1b2 [6] (setting [17]), 2 nM; on Cdc28-as1·MBP-C1b2 [6] (setting [18]), 2.9 nM; at Cdc28-as1·MBP-C1b2 [6] (IC50, 1 mM ATP, text b306) it was approximately 3 nM. Besides, the “genes with […] or greater changes in transcription” value in the data set with cdc28-as1 cells [7] stood at 104 genes. For the same molecule, the “increase of doubling times” value in the data set with wild-type cells [4] (50,000 nM) was “about 2 fold”. The “Cdc28-as1 more sensitive than wild-type Cdc28” value on Cdc28-as1·MBP-C1b2 [6] (1 mM ATP) is reported as “about 15,000 fold”. In addition, in the data set with wild-type cells [8], the “genes with transcription changed greater than two-fold” value is 6 genes. In addition, the “time to cyclin destruction and rebudding” value in the data set on cdc28-as1 cells [9] is less than 60 min.

As for `Nc1ncnc2c1ncn2[C@@H]1O[C@H](COP(=O)(O)OP(=O)(O)OP(=O)(O)O)[C@@H](O)[C@H]1O` [ATP, adenosine triphosphate], the “KM of the mutant higher than the KM of GST-XD4” value with GST-XD4(V323A, I338A) [10] (mutant versus GST-XD4) is on record as “more than 10 fold”. Moreover, the Km stood at 150 ± 20 µM on GST-XD4(V323A, I338A) [11]; 12 ± 3 µM in the data set with GST-XD4 [12]; 35 µM at Cdc28·MBP-C1b2 [13]; 2600 ± 900 µM in the data set with GST-XD4 [14]; 322 µM on Cdc28-as1·MBP-C1b2 [15] (read-out: ATP Kinetics Km). Besides, on GST-XD4(V323A, I338A) [11], the turnover number (kcat) is 0.013 ± 0.0033 s⁻¹. The “ATP Kinetics kcat” value on Cdc28-as1·MBP-C1b2 [15] stood at 0.355 s⁻¹.

Regarding `O=P(O)(O)OP(=O)(O)OP(=O)(O)OC[C@H]1O[C@@H](n2cnc3c(NC4CCCC4)ncnc32)[C@H](O)[C@@H]1O` [ATP analog 8, N^6(cyclopentyl)ATP], in the data set on GST-XD4(V323A, I338A) [10] (mutant with analog versus wild type with ATP), the “kcat/KM lower than the kcat/KM of the wild-type kinase with ATP” value turned out to be 50 fold. Besides, the Km worked out at 15 ± 3 µM at GST-XD4(V323A, I338A) [11] and 2100 ± 900 µM on GST-XD4(V323A, I338A) [16]. Besides, the “radiolabeled phosphoproteins in the cell lysate” value with wild type protein kinase is “no radiolabeled phosphoproteins”.

Consider `CC(C)(C)n1nc(-c2cccc3ccccc23)c2c(N)ncnc21` [Compound 10], for which the IC50 on I338A v-Src was 1 nM. Moreover, the diploid colonies in [2] was 0.6-1.1 x 10^5 cfu/ml. Moreover, the “cfu/mL on YPD plates” value in data set [3] is “No significant decrease in cfu/mL on YPD plates”. For the same molecule, in the data set on fus3-as1 strain (500 nM), the “decrease from equivalent control cells” value was 44 fold and the diploid colonies is recorded as 1.7x10^3 cfu/ml. In the data set on fus3-as1 strain (50 µM), the “amount of diploids formed” value is “indistinguishable from a fus3Δ strain”.
